# Tests used:
# [1] = Hypotensive effect in the anesthetized dog, intravenous route; type: in vivo; conditions: dose 100 μg/kg
# Experimental: In the use of the compounds of the invention to produce hypotensive effects in warm-blooded animals, administration by the injectable route is preferred, preferably the intravenous route.
# Thus in the anesthetized dog by the intravenous route the dose to produce hypotension is from about 1 μg/kg. to about 200 μg/kg. and preferably from about 10 μg/kg. to about 100 μg/kg. Using this procedure the following results were obtained.
# [2] = test system: bronchoconstricting effects of a standard dose of acetylcholine; experiment: Bronchodilation upon aerosol inhalation in the guinea pig (method of Rosenthale et al.): inhibition of acetylcholine bronchoconstriction; type: in vivo
# Excerpt: In using the compounds of the invention to produce bronchodilating effects in warm-blooded animals, they may be administered in a variety of dosage forms: oral, injectable, and aerosol inhalation. Aerosol inhalation is a preferred method because of its rapid onset of action, great potency, and specificity of action. The particular dosage to obtain the bronchodilating effect will vary with the particular compound employed, the particular animal involved, and the degree of bronchodilation desired. In the guinea pig, by aerosol inhalation, the dose to produce bronchodilation is from about 0.015 micrograms to about 50 micrograms, and preferably from about 0.015 to about 25 micrograms. The bronchodilation produced upon aerosol inhalation can be observed by the method of Rosenthale et al., J. Pharmacol. Exp. Ther., 178, 541 (1971). Using this procedure the following result was obtained.
structure (smiles),measurement,setting,value
"C#C[C@@](O)(/C=C/[C@@H]1[C@@H](C/C=C\CCCC(=O)O)[C@H](O)C[C@H]1O)CCCCC [7-(2β-[(3S)-3-Ethynyl-3-Hydroxy-Trans-1-Octenyl]-3α,5β-Dihydroxy-1α-cyclopentyl)-Cis-5-Heptenoic Acid]",Δb.p.,[1],-16 mm. Hg
same,Percent Inhibition of the bronchoconstricting effects of a standard dose of acetylcholine,[2]; dose 1.5 μg,64%
same,Percent Inhibition of the bronchoconstricting effects of a standard dose of acetylcholine,[2]; dose 15 μg,78%

# Reference: patent US3959363A, “15-Ethynyl-PFG2β” (American Home Products Corporation, priority 1974, dated 1976)
